Like-named read-outs stand apart in the source and are kept apart here. Numbered stars: 1 amine (or outer) side, 2 acyl side, 3 side chain; on linkers, the order of the positions; unused ones are H or OH. Square brackets hold non-standard residues; d marks the D form. Side chains are listed from the residue outwards. Peptide text beside a SMILES is read from it. * marks the point of attachment. γGlu = O=C(O)[C@H](CCC(=O)[*:2])N[*:1]; αMeF = C[C@](N)(Cc1ccccc1)C(=O)O; αMeK = C[C@](N)(CCCCN)C(=O)O; Lauroyl = CCCCCCCCCCCC(=O)*; αMeS = C[C@](N)(CO)C(=O)O; AEEA = NCCOCCOCC(=O)O; Aib = CC(C)(N)C(=O)O
Target: T1, human GLP-1 receptor (GLP-1R) (Homo sapiens, UniProt P43220)
T1 construct: expressed in transfected cells; host or cells: HEK293 cells or CHO cells
T1 sequence (P43220 24-463): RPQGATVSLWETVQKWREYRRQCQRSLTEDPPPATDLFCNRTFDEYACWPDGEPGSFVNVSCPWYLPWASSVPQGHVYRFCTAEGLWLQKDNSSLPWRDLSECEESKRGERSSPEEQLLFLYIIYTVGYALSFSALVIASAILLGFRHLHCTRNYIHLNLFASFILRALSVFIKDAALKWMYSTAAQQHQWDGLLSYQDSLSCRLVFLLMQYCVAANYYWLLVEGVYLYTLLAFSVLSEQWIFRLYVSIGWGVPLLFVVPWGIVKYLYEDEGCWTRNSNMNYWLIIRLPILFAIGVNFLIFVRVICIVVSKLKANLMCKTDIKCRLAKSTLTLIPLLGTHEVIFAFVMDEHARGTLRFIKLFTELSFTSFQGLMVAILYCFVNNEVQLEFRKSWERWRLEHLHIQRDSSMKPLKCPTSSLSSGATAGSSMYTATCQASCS
Assay: cAMP assay, human GLP-1R cells
Assay type: cell-based
Settings: Table 11, tris-lipidated peptides
Summary of the method: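 Peptide-stimulated cAMP measured by two-step HTRF after a 30 min room-temperature incubation with receptor-expressing cells (hGLP-1R, hGIPR at 1×10^5 cells/ml; hGCGR at 2×10^5 cells/ml). Duplicate dilutions; EC50 from 4-parameter logistic fit of % Delta F.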

[1] = mean of n1 and n2, read-out: Primary assay EC50 Mean pM GLP-1R
[2] = replicate n1, read-out: Primary assay EC50 GLP-1R n1
[3] = replicate n2, read-out: Primary assay EC50 GLP-1R n2

Row | SMILES | EC50 [1] [pM] | EC50 [2] [pM] | EC50 [3] [pM]
1 | CCCCCCCCCCCC(=O)N[C@@H](CCC(=O)NCCOCCOCC(=O)NCCOCCOCC(=O)NCCCC[C@H](NC(=O)[C@H](C)NC(=O)[C@@H](NC(=O)[C@H](Cc1ccccc1)NC(=O)[C@H](CCC(=O)O)NC(=O)[C@](C)(CCCCN)NC(=O)[C@H](C)NC(=O)[C@H](CCCCNC(=O)COCCOCCNC(=O)COCCOCCNC(=O)CC[C@H](NC(=O)CCCCCCCCCCC)C(=O)O)NC(=O)[C@H](CCC(=O)O)NC(=O)CNC(=O)[C@H](CCC(=O)O)NC(=O)[C@H](CC(C)C)NC(=O)[C@H](Cc1ccc(O)cc1)NC(=O)[C@H](CO)NC(=O)[C@H](CO)NC(=O)[C@H](CCCCNC(=O)COCCOCCNC(=O)COCCOCCNC(=O)CC[C@H](NC(=O)CCCCCCCCCCC)C(=O)O)NC(=O)[C@H](CC(=O)O)NC(=O)[C@H](CO)NC(=O)[C@@H](NC(=O)[C@](C)(Cc1ccccc1)NC(=O)[C@H](CO)NC(=O)CNC(=O)[C@H](CCC(=O)O)NC(=O)C(C)(C)NC(=O)[C@@H](N)Cc1c[nH]cn1)[C@@H](C)O)[C@@H](C)CC)C(=O)N[C@H](C(=O)N[C@H](C(=O)N[C@@H](CCC(=O)O)C(=O)NCC(=O)NCC(N)=O)C(C)C)C(C)C)C(=O)O [compound 457] (H-H[Aib]EGS[αMeF]TSDK([AEEA-AEEA-γGlu-Lauroyl])SSYLEGEK([AEEA-AEEA-γGlu-Lauroyl])A[αMeK]EFIAK([AEEA-AEEA-γGlu-Lauroyl])VVEGG-NH2; N-terminus assumed) | 142 | 127 | 156
2 | CCCCCCCCCCCC(=O)N[C@@H](CCC(=O)NCCOCCOCC(=O)NCCOCCOCC(=O)NCCCC[C@H](NC(=O)[C@H](C)NC(=O)[C@@H](NC(=O)[C@H](Cc1ccccc1)NC(=O)[C@H](CCC(=O)O)NC(=O)[C@](C)(CCCCN)NC(=O)[C@H](C)NC(=O)[C@H](C)NC(=O)[C@H](CCC(=O)O)NC(=O)[C@H](CCCCNC(=O)COCCOCCNC(=O)COCCOCCNC(=O)CC[C@H](NC(=O)CCCCCCCCCCC)C(=O)O)NC(=O)[C@H](CCC(=O)O)NC(=O)[C@H](CC(C)C)NC(=O)[C@H](CCCCNC(=O)COCCOCCNC(=O)COCCOCCNC(=O)CC[C@H](NC(=O)CCCCCCCCCCC)C(=O)O)NC(=O)[C@H](CO)NC(=O)[C@](C)(CO)NC(=O)[C@@H](NC(=O)[C@H](CC(=O)O)NC(=O)[C@H](CO)NC(=O)[C@@H](NC(=O)[C@](C)(Cc1ccccc1)NC(=O)[C@H](CO)NC(=O)CNC(=O)[C@H](CCC(=O)O)NC(=O)C(C)(C)NC(=O)[C@@H](N)Cc1c[nH]cn1)[C@@H](C)O)C(C)C)[C@@H](C)CC)C(=O)N[C@H](C(=O)N[C@H](C(=O)N[C@@H](CCC(=O)O)C(=O)NCC(=O)NCC(N)=O)C(C)C)C(C)C)C(=O)O [compound 463] (H-H[Aib]EGS[αMeF]TSDV[αMeS]SK([AEEA-AEEA-γGlu-Lauroyl])LEK([AEEA-AEEA-γGlu-Lauroyl])EAA[αMeK]EFIAK([AEEA-AEEA-γGlu-Lauroyl])VVEGG-NH2; N-terminus assumed) | 82 | 69.5 | 94.4

— patent US20210221866A1, “PROTEASE-RESISTANT LIPIDATED GLP-1 ANALOGS” (MEDIMMUNE LIMITED, priority 2015, published 2021)
